The values below come from patent US20240101572A1, “DIHYDROOXADIAZINONE COMPOUND AND PHARMACEUTICAL USE THEREOF” (Japan Tobacco Inc., priority 2022, published 2024).

A word on the IC50: it is the concentration that inhibits the measured activity by half.

In assay [1] the target is full-length human PLD1 (Homo sapiens (Human), UniProt Q13393). Description: Evaluation of human PLD1 enzyme inhibitory activity (Amplex Red / choline oxidase fluorescence). Format: biochemical. As to conditions: full-length human PLD1 enzyme; read-out: PLD1 IC50. How it is done:
A method for measuring human PLD1 enzyme inhibitory activity using an enzyme in which a FLAG-tag is added to the N-terminus of full-length human PLD1 (1-1036 amino acids) is shown below.
(§1) DNA fragment in which a FLAG-tag sequence is added to the 5′-end of full-length human PLD1 was amplified by PCR method, using commercially available human PLD1 gene (Promega KK) as a template. The amplified DNA fragment was fused with vector pVL1393 for baculovirus production (Pharmingen) digested with BamHI and EcoRI, using In-Fusion HD Cloning Kit (Takara Bio). The full-length human PLD1-expression plasmid DNA for baculovirus was isolated from Escherichia coli DH5a (TOYOBO) transformed with the obtained In-Fusion reaction product. Next, DNA fragment in which a FLAG-tag sequence is added to the 5′-end of full-length human PLD1 was amplified by PCR method, using the full-length human PLD1-expression plasmid DNA for baculovirus as a template. The amplified DNA fragment was fused with a DNA fragment in which a linker sequence is introduced into pcDNA3.4-TOPO (Life Technologies), using In-Fusion HD Cloning Kit (Takara Bio). The full-length human PLD1-expression plasmid DNA for animal cells was isolated from Escherichia coli DH5a transformed with the obtained In-Fusion reaction product. The base sequence of the full-length human PLD1 cloned into vector was determined by a Dye Terminator method using BigDye Terminator v3.1 Cycle Sequencing Kit (Applied Biosystems). The determined sequence was a sequence in which the FLAG-tag sequence was inserted at the 5′-end of the full-length human PLD1 (GenBank Accession Number: NM_001130081).
(§2) Expi293F cells (Life Technologies) were cultured with shaking using Expi293 Expression Medium (Life Technologies) as a medium at 37° C. in the presence of 8% CO2. The gene introduction reagent PEI was prepared by dissolving Polyethylenimine Max (nominally MW 40,000) (Polysciences) in MilliQ water, adjusting the pH of the solution to 7.0 with NaOH to obtain a 1 mg/mL solution, and then filtering the solution through 0.22 μm filter. The full-length human PLD1-expression plasmid DNA for animal cells was transfected into Expi293F cells using PEI, and after 48 hours of shaking culture, the cells were collected and stored at −80° C.
(§3) To the full-length human PLD1-expressed cells was added a Homogenate buffer (20 mmol/L Na-phosphate pH 7.5, 250 mmol/L NaCl, 1 mmol/L MgCl2, 1% β-OG, 0.05 mmol/L DTT+complete EDTA-free (Roche Diagnostics K.K.)), and the cells were lysed by Microfluidizer Processor M-110EH (Mizuho Kogyo Co., Ltd.). The lysate was centrifuged at 10,100×g at 4° C. for 15 minutes, and the supernatant was collected and filtered through 0.45 μm filter. To the centrifuged supernatant was added ANTI-FLAG M2 Affinity Gel (SIGMA-Aldrich) resin equilibrated with a Homogenate buffer, and the mixed solution was stirred at 4° C. for 1 hr or more. The mixed solution was loaded onto Poly-Prep column, and the resin was washed with a Wash buffer (20 mmol/L Na-phosphate pH 7.5, 150 mmol/L NaCl, 1 mmol/L MgCl2, 0.02% Triton, 0.05 mmol/L DTT). A Wash buffer containing 400 μg/mL DYKDDDDK Peptide (Scrum Inc.) was added to the column to elute the protein bound to the resin. The eluted fractions were subjected to SDS-PAGE followed by CBB staining to identify the fractions containing the full-length human PLD1. The eluted fractions of the full-length human PLD1 were collected and concentrated using Amicon Ultra-15 100k (Merck Millipore). The concentrated fractions were collected, flash-frozen in liquid nitrogen and stored at −80° C.
(§4) A DMSO or test substance solution (the DMSO final concentration: 5%) prepared by diluting DMSO or test substance with an Assay buffer (50 mmol/L HEPES pH 7.5, 80 mmol/L KCl, 3 mmol/L EGTA, 3.6 mmol/L MgCl2, 0.01% NP-40, 0.1% BSA), and the solution was added to a 384 well Assay Plate (Black, Polystyrene, Non-Treated, Cat No. 3573, Corning) by 5 μL/well. […]

Assay [2] concerns the target full-length human PLD2 (Homo sapiens (Human), UniProt O14939). In words: Evaluation of human PLD2 enzyme inhibitory activity (Amplex Red / choline oxidase fluorescence). The format is biochemical. As to conditions: full-length human PLD2 enzyme; read-out: PLD2 IC50. As to the method: A method for measuring human PLD2 enzyme inhibitory activity using an enzyme in which a FLAG-tag is added to the N-terminus of full-length human PLD2 (1-933 amino acids) is shown below.
as §1, with “PLD2” for “PLD1”, “PLD2-expression” for “PLD1-expression”, “NM 002663).” for “NM_001130081).”
as §2, with “PLD2-expression” for “PLD1-expression”
as §3, with “PLD2-expressed” for “PLD1-expressed”, “PLD2.” for “PLD1.”, “PLD2” for “PLD1”
as §4

full-length human PLD1, sequence (Q13393 other isoform, or with tags, fused parts or gaps): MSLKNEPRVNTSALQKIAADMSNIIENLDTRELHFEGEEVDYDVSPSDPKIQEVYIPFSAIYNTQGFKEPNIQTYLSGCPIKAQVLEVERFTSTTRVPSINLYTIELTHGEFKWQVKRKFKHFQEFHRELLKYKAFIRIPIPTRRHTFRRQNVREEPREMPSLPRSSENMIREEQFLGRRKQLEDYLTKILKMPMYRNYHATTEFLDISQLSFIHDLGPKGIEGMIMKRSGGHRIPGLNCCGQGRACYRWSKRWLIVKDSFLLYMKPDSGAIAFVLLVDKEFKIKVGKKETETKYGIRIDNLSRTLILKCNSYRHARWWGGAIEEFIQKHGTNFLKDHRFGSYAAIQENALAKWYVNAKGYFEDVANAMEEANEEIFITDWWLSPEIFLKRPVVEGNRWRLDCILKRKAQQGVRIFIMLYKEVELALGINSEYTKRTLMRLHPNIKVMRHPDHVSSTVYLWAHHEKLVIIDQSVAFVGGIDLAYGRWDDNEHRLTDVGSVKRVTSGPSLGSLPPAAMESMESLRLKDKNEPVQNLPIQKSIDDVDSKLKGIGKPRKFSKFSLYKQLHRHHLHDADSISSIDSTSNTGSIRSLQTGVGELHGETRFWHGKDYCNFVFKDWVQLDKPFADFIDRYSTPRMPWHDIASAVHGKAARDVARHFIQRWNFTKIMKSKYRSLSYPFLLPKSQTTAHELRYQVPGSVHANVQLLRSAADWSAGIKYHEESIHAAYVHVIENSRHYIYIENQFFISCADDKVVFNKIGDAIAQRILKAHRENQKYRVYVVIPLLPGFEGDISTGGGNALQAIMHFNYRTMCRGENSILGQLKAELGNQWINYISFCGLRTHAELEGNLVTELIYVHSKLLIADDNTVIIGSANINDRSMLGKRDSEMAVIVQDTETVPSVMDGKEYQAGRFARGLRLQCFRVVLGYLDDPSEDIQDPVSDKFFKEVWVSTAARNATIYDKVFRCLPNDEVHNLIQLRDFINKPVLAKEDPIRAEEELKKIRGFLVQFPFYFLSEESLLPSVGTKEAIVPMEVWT
full-length human PLD2, sequence (O14939 whole entry, the tested form may be a part): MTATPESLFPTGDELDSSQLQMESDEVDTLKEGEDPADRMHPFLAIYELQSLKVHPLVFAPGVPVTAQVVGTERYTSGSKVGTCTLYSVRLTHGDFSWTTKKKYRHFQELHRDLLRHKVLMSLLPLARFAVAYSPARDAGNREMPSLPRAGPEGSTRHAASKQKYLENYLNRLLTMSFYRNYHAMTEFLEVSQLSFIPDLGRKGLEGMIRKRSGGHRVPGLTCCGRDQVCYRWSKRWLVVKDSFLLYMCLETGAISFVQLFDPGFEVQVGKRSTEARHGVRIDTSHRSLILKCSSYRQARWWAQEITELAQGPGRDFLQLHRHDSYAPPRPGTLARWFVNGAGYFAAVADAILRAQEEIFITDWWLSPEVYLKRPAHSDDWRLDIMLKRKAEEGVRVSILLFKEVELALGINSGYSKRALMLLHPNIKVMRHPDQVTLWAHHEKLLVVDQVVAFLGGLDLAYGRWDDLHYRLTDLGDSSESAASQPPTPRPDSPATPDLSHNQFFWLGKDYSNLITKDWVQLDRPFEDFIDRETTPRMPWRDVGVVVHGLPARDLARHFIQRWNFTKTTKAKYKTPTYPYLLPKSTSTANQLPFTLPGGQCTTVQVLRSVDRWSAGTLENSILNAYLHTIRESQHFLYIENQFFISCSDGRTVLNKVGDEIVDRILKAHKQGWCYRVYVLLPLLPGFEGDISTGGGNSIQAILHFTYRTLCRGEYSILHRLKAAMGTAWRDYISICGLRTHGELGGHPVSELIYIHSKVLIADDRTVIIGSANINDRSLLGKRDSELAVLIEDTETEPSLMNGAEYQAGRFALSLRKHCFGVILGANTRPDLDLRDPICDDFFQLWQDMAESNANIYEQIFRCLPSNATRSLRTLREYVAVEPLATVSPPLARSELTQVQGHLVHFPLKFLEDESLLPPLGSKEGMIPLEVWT

For `[2H]C([2H])([2H])NC(=O)C(=O)N[C@@H](C)CN1CCC2(CC1)OC(=O)NN=C2c1cc(C#N)c(F)cc1Br` [Example 2-004], the concentration for half-maximal inhibition (IC50) is 68 nM in assay [1] and under 10 nM in assay [2].

Regarding `CNC(=O)C(=O)N[C@@H](C)CN1CCC2(CC1)OC(=O)NN=C2c1cc(C#N)ccc1Cl` [Example 2-006], the concentration for half-maximal inhibition (IC50) in assay [1] amounted to 56 nM; in assay [2], 11 nM.

On to `Cc1cc(C(=O)N[C@@H](C)CN2CCC3(CC2)OC(=O)NN=C3c2cc(C#N)ccc2Cl)[nH]n1` [Example 2-007], for which the values for the 50% inhibitory concentration (IC50) in assay [1] and in assay [2] were 28 nM and under 10 nM, respectively.

`[2H]C([2H])([2H])NC(=O)C(=O)NC(C)CN1CCC2(CC1)OC(=O)NN=C2c1cc(C#N)ccc1Cl` (stereo not drawn) [Example 2-008]: the results for the IC50 in assay [1] and in assay [2] were 62 nM and 11 nM, respectively.

With `C[C@@H](CN1CCC2(CC1)OC(=O)NN=C2c1cc(C#N)ccc1Cl)NC(=O)[C@H](O)C(F)(F)F` [Example 2-009], the IC50 was 2150 nM in assay [1] and 1040 nM in assay [2].

`CNC(=O)C(=O)N[C@H](C)CN1CCC2(CC1)OC(=O)NN=C2c1ccc(F)cc1Br` [Example 2-011]: the half-maximal inhibitory concentration (IC50) in assay [1] came to 2110 nM; in assay [2], 2940 nM.

For the compound `Cc1cc(C(=O)N[C@H](C)CN2CCC3(CC2)OC(=O)NN=C3c2ccc(F)cc2Br)[nH]n1` [Example 2-012], the IC50 was found to be 2040 nM in assay [1] and 245 nM in assay [2].

In the case of `CNC(=O)C(=O)N[C@@H](C)C[C@H]1CC[C@]2(CC1)OC(=O)NN=C2c1ncccc1Br` [Example 2-013], the IC50 in assay [1] is 12 nM; in assay [2], under 10 nM.

In the case of `CNC(=O)C(=O)N[C@@H](C)C[C@H]1CC[C@]2(CC1)OC(=O)NN=C2c1cc(OCC(C)(C)O)ccc1Br` [Example 2-014], the IC50 in assay [1] was 22 nM; in assay [2], under 10 nM.

For the compound `CNC(=O)C(=O)N[C@@H](C)CN1CCC2(CC1)OC(=O)NN=C2c1cc(Br)c(F)cc1Cl` [Example 2-015], the IC50 was found to be 26 nM in assay [1] and 12 nM in assay [2].

For `Cc1cc(C(=O)N[C@@H](C)CN2CCC3(CC2)OC(=O)NN=C3c2cc(Br)c(F)cc2Cl)[nH]n1` [Example 2-016], the IC50 was 19 nM in assay [1] and under 10 nM in assay [2].

As to `CNC(=O)C(=O)N[C@H](CN1CCC2(CC1)OC(=O)NN=C2c1cc(C#N)ccc1Br)C(F)(F)F` [Example 2-017], the 50% inhibitory concentration (IC50) amounted to 99 nM in assay [1] and 45 nM in assay [2].

As to `CNC(=O)C(=O)N[C@@H](C)CN1CCC2(CC1)OC(=O)NN=C2c1c(F)cccc1Br` [Example 2-018], the IC50 in assay [1] is 22 nM; in assay [2] it was under 10 nM.

Regarding `CNC(=O)C(=O)N[C@@H](C)C[C@H]1CC[C@]2(CC1)OC(=O)NN=C2c1ccccc1SC(F)(F)F` [Example 2-019], the 50% inhibitory concentration (IC50) was 12 nM in assay [1] and under 10 nM in assay [2].

Take `C[C@@H](C[C@H]1CC[C@]2(CC1)OC(=O)NN=C2c1ccccc1SC(F)(F)F)NC(=O)c1cnn(C)c1` [Example 2-020]: the IC50 in assay [1] came out at 21 nM; in assay [2], 16 nM.

In the case of `CNC(=O)C(=O)N[C@@H](C)CN1CCC2(CC1)OC(=O)NN=C2c1ccccc1SC(F)(F)F` [Example 2-021], the IC50 is 27 nM in assay [1] and 15 nM in assay [2].

For `CC(C)=CC(=O)N[C@@H](C)CN1CCC2(CC1)OC(=O)NN=C2c1cc(C#N)ccc1Br` [Example 2-022], the IC50 in assay [1] was determined as 738 nM; in assay [2], 388 nM.

With `C[C@@H](CN1CCC2(CC1)OC(=O)NN=C2c1cc(C#N)ccc1Br)NC(=O)CCC(F)(F)F` [Example 2-023], the IC50 in assay [1] came out at 102 nM; in assay [2], 64 nM.

Consider `COC(=O)/C=C/C(=O)N[C@@H](C)CN1CCC2(CC1)OC(=O)NN=C2c1cc(C#N)ccc1Br` [Example 2-024], for which the results for the concentration for half-maximal inhibition (IC50) in assay [1] and in assay [2] were 46 nM and 28 nM, respectively.

As to `CNC(=O)C(=O)N[C@@H](C)CN1CCC2(CO1)OC(=O)NN=C2c1cc(C#N)ccc1Br` (stereo partly drawn) [Example 2-025], the values for the IC50 in assay [1] and in assay [2] were 219 nM and 205 nM, respectively.

In the case of `CNC(=O)C(=O)N[C@@H](C)C[C@H]1CC[C@]2(CC1)OC(=O)NN=C2c1cc(C(C)(C)O)ccc1Br` [Example 2-026], the half-inhibitory concentration (IC50) was 12 nM in assay [1] and under 10 nM in assay [2].

As for `C[C@@H](C[C@H]1CC[C@]2(CC1)OC(=O)NN=C2c1cc(C(C)(C)O)ccc1Br)NC(=O)c1cnn(C)c1` [Example 2-027], the IC50 in assay [1] is 13 nM; in assay [2], under 10 nM.

Consider `CNC(=O)C(=O)N[C@@H](C)CN1CCC2(CC1)OC(=O)NN=C2c1ncccc1Br` [Example 2-028], for which the 50% inhibitory concentration (IC50) in assay [1] was 45 nM; in assay [2], 32 nM.

As to `C[C@@H](CN1CCC2(CC1)OC(=O)NN=C2c1cc(C#N)ccc1Br)NC(=O)c1ccccc1C(F)(F)F` [Example 2-029], the IC50 in assay [1] is 1510 nM; in assay [2] it was 8410 nM.
